Source: US8952024B2, “Herbicidal pyrimidone derivatives” (E I du Pont de Nemours and Company, priority 2009, dated 2015)

Tests used:
Assay type in all cases: in vivo
[1] = test system: canarygrass (Phalaris minor); assay: Test B postemergence plant response; conditions: Postemergence
Description: (§1) At the same time, plants selected from these crop and weed species and also winter barley (Hordeum vulgare), canarygrass (Phalaris minor), chickweed (Stellaria media) and windgrass (Apera spica-venti) were planted in pots containing Redi-Earth® planting medium (Scotts Company, 14111 Scottslawn Road, Marysville, Ohio 43041) comprising spaghnum peat moss, vermiculite, wetting agent and starter nutrients and treated with postemergence applications of some of the test chemicals formulated in the same manner. Plants ranged in height from 2 to 18 cm (1- to 4-leaf stage) for postemergence treatments.
(§2) Treated plants and controls were maintained in a greenhouse for 13 to 15 days, after which time all treated plants were visually evaluated and compared to controls. Plant response ratings, summarized in Table B, are based on a scale of 0 to 100 where 0 is no effect and 100 is complete control. A dash (-) response means no test result.

[2] = test system: winter barley (Hordeum vulgare); assay: Test B postemergence plant response; conditions: Postemergence
Description: as §1, §2

[3] = test system: chickweed (Stellaria media); assay: Test B postemergence plant response; conditions: Postemergence
Description: as §1, §2

[4] = test system: windgrass (Apera spica-venti); assay: Test B postemergence plant response; conditions: Postemergence
Description: as §1, §2

[5] = test system: bermudagrass (Cynodon dactylon); assay: Test B pre-/postemergence plant response
Description: (§3) Seeds of plant species selected from blackgrass (Alopecurus myosuroides), downy bromegrass (Bromus tectorum), green foxtail (Setaria viridis), Italian ryegrass (Lolium multiflorum), wheat (Triticum aestivum), wild oat (Avena fatua), deadnettle (henbit deadnettle, Lamium amplexicaule), galium (catchweed bedstraw, Galium aparine), bermudagrass (Cynodon dactylon), Surinam grass (Brachiaria decumbens), cocklebur (Xanthium strumarium), corn (Zea mays), large crabgrass (Digitaria sanguinalis), woolly cupgrass (Eriochloa villosa), giant foxtail (Setaria faberii), goosegrass (Eleusine indica), johnsongrass (Sorghum halepense), kochia (Kochia scoparia), lambsquarters (Chenopodium album), morningglory (Ipomoea coccinea), nightshade (eastern black nightshade, Solanum ptycanthum), yellow nutsedge (Cyperus esculentus), pigweed (Amaranthus retroflexus), ragweed (common ragweed, Ambrosia elatior), Russian thistle (Salsola kali), soybean (Glycine max), sunflower (common oilseed sunflower, Helianthus annuus) and velvetleaf (Abutilon theophrasti) were planted into a blend of loam soil and sand and treated preemergence with test compounds formulated in a non-phytotoxic solvent mixture which included a surfactant.
as §1, §2

[6] = test system: morningglory (Ipomoea coccinea); assay: Test B pre-/postemergence plant response
Description: as §3, §1, §2

[7] = test system: johnsongrass (Sorghum halepense); assay: Test B pre-/postemergence plant response
Description: as §3, §1, §2

corn (Zea mays) = assay: Test B pre-/postemergence plant response
Description: as §3, §1, §2

soybean (Glycine max) = assay: Test B pre-/postemergence plant response
Description: as §3, §1, §2

wild oat (Avena fatua) = assay: Test B pre-/postemergence plant response
Description: as §3, §1, §2

[8] = test system: blackgrass (Alopecurus myosuroides); assay: Test B pre-/postemergence plant response
Description: as §3, §1, §2

kochia (Kochia scoparia) = assay: Test B pre-/postemergence plant response; conditions: Postemergence
Description: as §3, §1, §2

[9] = test system: giant foxtail (Setaria faberii); assay: Test B pre-/postemergence plant response
Description: as §3, §1, §2

[10] = 31 g ai/ha, 0 to 100 scale (0 no effect, 100 complete control)
[11] = 62 g ai/ha, scale 0 to 100 (0 no effect, 100 complete control)
[12] = 125 g ai/ha, scale 0 (no effect) to 100 (complete control), 13 to 15 days
[13] = 250 g ai/ha, scale 0 to 100 (0 no effect, 100 complete control), 13 to 15 days
[14] = Postemergence, 31 g ai/ha, 0 to 100 scale (0 no effect, 100 complete control)
[15] = Postemergence, 62 g ai/ha, scale 0 to 100 (0 no effect, 100 complete control)
[16] = Postemergence, 125 g ai/ha, scale 0 (no effect) to 100 (complete control), 13 to 15 days
[17] = Postemergence, 250 g ai/ha, scale 0 to 100 (0 no effect, 100 complete control), 13 to 15 days
[18] = Preemergence, 31 g ai/ha, scale 0 to 100 (0 no effect, 100 complete control)
[19] = Preemergence, 62 g ai/ha, scale 0 to 100 (0 no effect, 100 complete control)
[20] = Preemergence, 125 g ai/ha, scale 0 to 100, 0 no effect, 100 complete control
[21] = Preemergence, 250 g ai/ha, 0 to 100 scale

CCc1ccccc1-n1c(-c2ccccc2)ncc(C(=O)C2=C(O)CCCC2=O)c1=O [Compound 255]
98: Plant response rating, Chickweed [3, 11] | Johnsongrass plant response rating [7, 21] | Plant response rating, Foxtail, Giant [9, 15] | Plant response rating, Foxtail, Giant [9, 16] | Foxtail, Giant plant response rating [9, 21]
100: Plant response rating, Chickweed [3, 12] | Plant response rating, Chickweed [3, 13] | Plant response rating, Bermudagrass [5, 17] | Plant response rating, Bermudagrass [5, 18] | Plant response rating, Bermudagrass [5, 19] | Plant response rating, Bermudagrass [5, 20] | Bermudagrass plant response rating ([5]; Preemergence, 250 g ai/ha, 0 to 100 scale, 0 no effect, 100 complete control) | Plant response rating, Morningglory [6, 17] | Plant response rating, Soybean (soybean (Glycine max); [16]) | Plant response rating, Soybean (soybean (Glycine max); [17]) | Plant response rating, Foxtail, Giant [9, 17]
10: Plant response rating, Blackgrass [8, 16] | Plant response rating, Kochia (kochia (Kochia scoparia); [10])
50: Plant response rating, Canarygrass [1, 10] | Plant response rating, Canarygrass [1, 11] | Plant response rating, Canarygrass [1, 12] | Plant response rating, Barley [2, 13] | Plant response rating, Windgrass [4, 10]
15: Plant response rating, Soybean (soybean (Glycine max); [20]) | Plant response rating, Kochia (kochia (Kochia scoparia); [11]) | Plant response rating, Kochia (kochia (Kochia scoparia); [12]) | Plant response rating, Foxtail, Giant [9, 18]
80: Plant response rating, Windgrass [4, 11] | Plant response rating, Windgrass [4, 12] | Plant response rating, Johnsongrass [7, 14] | Soybean plant response rating (soybean (Glycine max); [21]) | Plant response rating, Oat, Wild (wild oat (Avena fatua); [15])
35: Plant response rating, Barley [2, 11] | Plant response rating, Barley [2, 12]
95: Plant response rating, Chickweed [3, 10] | Plant response rating, Windgrass [4, 13] | Plant response rating, Bermudagrass [5, 15] | Plant response rating, Bermudagrass [5, 16] | Plant response rating, Johnsongrass [7, 17] | Plant response rating, Soybean (soybean (Glycine max); [14]) | Plant response rating, Soybean (soybean (Glycine max); [15]) | Plant response rating, Foxtail, Giant [9, 14]
65: Plant response rating, Morningglory [6, 20] | Plant response rating, Oat, Wild (wild oat (Avena fatua); [14]) | Plant response rating, Kochia (kochia (Kochia scoparia); [13])
5: Plant response rating, Blackgrass [8, 14] | Plant response rating, Blackgrass [8, 15]
0: Plant response rating, Johnsongrass [7, 18] | Plant response rating, Corn (corn (Zea mays); [18]) | Plant response rating, Corn (corn (Zea mays); [19]) | Plant response rating, Corn (corn (Zea mays); [20]) | Corn plant response rating (corn (Zea mays); [21]) | Plant response rating, Soybean (soybean (Glycine max); [18]) | Plant response rating, Soybean (soybean (Glycine max); [19]) | Plant response rating, Oat, Wild (wild oat (Avena fatua); [18]) | Plant response rating, Oat, Wild (wild oat (Avena fatua); [19]) | Plant response rating, Blackgrass [8, 18]
40: Plant response rating, Morningglory [6, 18] | Plant response rating, Blackgrass [8, 20]
30: Plant response rating, Barley [2, 10]
55: Plant response rating, Morningglory [6, 19] | Plant response rating, Foxtail, Giant [9, 20]
85: Plant response rating, Morningglory [6, 15] | Plant response rating, Morningglory [6, 16] | Plant response rating, Johnsongrass [7, 15] | Plant response rating, Corn (corn (Zea mays); [16]) | Plant response rating, Corn (corn (Zea mays); [17]) | Plant response rating, Oat, Wild (wild oat (Avena fatua); [16])
60: Plant response rating, Canarygrass [1, 13] | Plant response rating, Johnsongrass [7, 19] | Plant response rating, Corn (corn (Zea mays); [14]) | Plant response rating, Oat, Wild (wild oat (Avena fatua); [20]) | Plant response rating, Blackgrass [8, 17] | Blackgrass plant response rating [8, 21]
20: Plant response rating, Blackgrass [8, 19]
90: Plant response rating, Bermudagrass [5, 14] | Morningglory plant response rating [6, 21] | Plant response rating, Johnsongrass [7, 16] | Plant response rating, Oat, Wild (wild oat (Avena fatua); [17]) | Oat, Wild plant response rating (wild oat (Avena fatua); [21])
45: Plant response rating, Foxtail, Giant [9, 19]
75: Plant response rating, Morningglory [6, 14] | Plant response rating, Johnsongrass [7, 20] | Plant response rating, Corn (corn (Zea mays); [15])
